Active and inactive are the calls of the source. No cut-off for these calls is given here.
Key:
[1] = target: T1, Protein cereblon/Focal adhesion kinase 1 (Homo sapiens, UniProt Q05397+Q96SW2); test: Protac activity at CRBN/PTK2 in human HuCCT-1 cells assessed as induction of PTK2 degradation incubated for 18 hrs by protein capillary electrophoresis method relative to control; format: cell-based
[2] = target: T1, Protein cereblon/Focal adhesion kinase 1; test: Protac activity at CRBN/PTK2 in human Hep3B2.1-7 cells assessed as induction of PTK2 degradation incubated for 18 hrs in presence of Cyclosporine A by protein capillary electrophoresis method; format: cell-based; settings: hep3b
Target sequence in this assay (Q05397 whole entry): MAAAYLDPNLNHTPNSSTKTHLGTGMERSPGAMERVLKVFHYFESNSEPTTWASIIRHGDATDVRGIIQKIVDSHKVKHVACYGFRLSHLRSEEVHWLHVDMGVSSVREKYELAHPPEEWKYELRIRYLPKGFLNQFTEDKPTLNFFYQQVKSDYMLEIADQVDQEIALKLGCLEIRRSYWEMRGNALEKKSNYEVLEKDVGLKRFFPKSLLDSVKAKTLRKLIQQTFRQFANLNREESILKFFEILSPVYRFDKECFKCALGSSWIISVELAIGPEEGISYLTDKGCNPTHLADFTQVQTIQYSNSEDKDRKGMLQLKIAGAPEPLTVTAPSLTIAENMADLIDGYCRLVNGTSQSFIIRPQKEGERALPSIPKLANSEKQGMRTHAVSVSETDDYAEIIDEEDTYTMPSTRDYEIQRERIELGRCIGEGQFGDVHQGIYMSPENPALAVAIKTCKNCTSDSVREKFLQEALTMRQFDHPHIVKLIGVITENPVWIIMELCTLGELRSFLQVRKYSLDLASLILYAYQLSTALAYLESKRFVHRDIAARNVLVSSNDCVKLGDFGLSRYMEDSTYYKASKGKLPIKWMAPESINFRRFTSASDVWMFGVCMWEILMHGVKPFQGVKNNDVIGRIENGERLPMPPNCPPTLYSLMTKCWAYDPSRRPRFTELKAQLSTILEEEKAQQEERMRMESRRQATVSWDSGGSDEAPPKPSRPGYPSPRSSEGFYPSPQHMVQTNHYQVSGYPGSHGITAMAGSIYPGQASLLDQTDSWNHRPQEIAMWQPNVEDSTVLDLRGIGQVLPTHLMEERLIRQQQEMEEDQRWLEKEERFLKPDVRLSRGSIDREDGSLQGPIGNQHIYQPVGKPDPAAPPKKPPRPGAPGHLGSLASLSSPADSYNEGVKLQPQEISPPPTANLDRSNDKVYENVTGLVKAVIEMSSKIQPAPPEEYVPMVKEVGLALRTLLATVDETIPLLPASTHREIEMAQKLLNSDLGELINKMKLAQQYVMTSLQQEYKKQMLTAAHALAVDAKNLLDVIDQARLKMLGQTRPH
Target sequence in this assay (Q96SW2 whole entry): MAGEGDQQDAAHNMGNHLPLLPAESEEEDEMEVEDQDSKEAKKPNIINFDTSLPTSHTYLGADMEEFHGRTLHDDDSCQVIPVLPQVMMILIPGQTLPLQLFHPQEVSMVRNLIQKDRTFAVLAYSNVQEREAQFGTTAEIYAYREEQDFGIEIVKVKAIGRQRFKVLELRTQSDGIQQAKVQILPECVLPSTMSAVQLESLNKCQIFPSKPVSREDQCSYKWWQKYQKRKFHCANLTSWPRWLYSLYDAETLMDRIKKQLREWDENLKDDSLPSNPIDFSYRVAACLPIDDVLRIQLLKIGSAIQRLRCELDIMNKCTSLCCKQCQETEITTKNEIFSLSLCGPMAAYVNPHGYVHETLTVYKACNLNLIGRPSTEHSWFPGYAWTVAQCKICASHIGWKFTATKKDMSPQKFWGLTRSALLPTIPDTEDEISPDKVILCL

[3] = target: T1, Protein cereblon/Focal adhesion kinase 1; test: Protac activity at CRBN/PTK2 in human Hep3B2.1-7 cells assessed as induction of PTK2 degradation incubated for 18 hrs by protein capillary electrophoresis method; format: cell-based; settings: hep3b
Target sequence in this assay (Q05397 whole entry): as the sequence (Q05397 whole entry) above
Target sequence in this assay (Q96SW2 whole entry): as the sequence (Q96SW2 whole entry) above

[4] = target: T1, Protein cereblon/Focal adhesion kinase 1; test: Protac activity at CRBN/PTK2 in human A549 cells assessed as induction of PTK2 degradation incubated for 18 hrs by protein capillary electrophoresis method; format: cell-based
Target sequence in this assay (Q05397 whole entry): as the sequence (Q05397 whole entry) above
Target sequence in this assay (Q96SW2 whole entry): as the sequence (Q96SW2 whole entry) above

[5] = target: T1, Protein cereblon/Focal adhesion kinase 1; test: Protac activity at CRBN/PTK2 in human SNU-398 cells assessed as induction of PTK2 degradation incubated for 18 hrs by protein capillary electrophoresis method relative to control; format: cell-based
[6] = target: T1, Protein cereblon/Focal adhesion kinase 1; test: Protac activity at CRBN/PTK2 in human SNU-423 cells assessed as induction of PTK2 degradation incubated for 18 hrs by protein capillary electrophoresis method; format: cell-based
Target sequence in this assay (Q05397 whole entry): as the sequence (Q05397 whole entry) above
Target sequence in this assay (Q96SW2 whole entry): as the sequence (Q96SW2 whole entry) above

[7] = target: T1, Protein cereblon/Focal adhesion kinase 1; test: Protac activity at CRBN/PTK2 in human SNU-423 cells assessed as induction of PTK2 degradation incubated for 18 hrs by protein capillary electrophoresis method relative to control; format: cell-based
[8] = target: T1, Protein cereblon/Focal adhesion kinase 1; test: Protac activity at CRBN/PTK2 in human HepG2 cells assessed as induction of PTK2 degradation incubated for 18 hrs by protein capillary electrophoresis method; format: cell-based
Target sequence in this assay (Q05397 whole entry): as the sequence (Q05397 whole entry) above
Target sequence in this assay (Q96SW2 whole entry): as the sequence (Q96SW2 whole entry) above

[9] = target: T1, Protein cereblon/Focal adhesion kinase 1; test: Protac activity at CRBN/PTK2 in human Hep3B2.1-7 cells assessed as induction of PTK2 degradation incubated for 18 hrs in presence of Cyclosporine A by protein capillary electrophoresis method relative to control; format: cell-based; settings: Hep3B
[10] = Stability in DMSO as solid form; format: physicochemical
[11] = target: T1, Protein cereblon/Focal adhesion kinase 1; test: Protac activity at CRBN/PTK2 in human SNU-387 cells assessed as induction of PTK2 degradation incubated for 18 hrs by protein capillary electrophoresis method; format: cell-based
Target sequence in this assay (Q05397 whole entry): as the sequence (Q05397 whole entry) above
Target sequence in this assay (Q96SW2 whole entry): as the sequence (Q96SW2 whole entry) above

[12] = target: T1, Protein cereblon/Focal adhesion kinase 1; test: Protac activity at CRBN/PTK2 in human HuH-1 cells assessed as induction of PTK2 degradation incubated for 18 hrs by protein capillary electrophoresis method; format: cell-based
[13] = target: T1, Protein cereblon/Focal adhesion kinase 1; test: Protac activity at CRBN/PTK2 in human HLF1 cells assessed as induction of PTK2 degradation incubated for 18 hrs by protein capillary electrophoresis method relative to control; format: cell-based
[14] = target: T1, Protein cereblon/Focal adhesion kinase 1; test: Protac activity at CRBN/PTK2 in human SK-HEP1 cells assessed as induction of PTK2 degradation incubated for 18 hrs by protein capillary electrophoresis method; format: cell-based
[15] = target: T1, Protein cereblon/Focal adhesion kinase 1; test: Protac activity at CRBN/PTK2 in human HLE cells assessed as induction of PTK2 degradation incubated for 18 hrs by protein capillary electrophoresis method; format: cell-based
[16] = target: T1, Protein cereblon/Focal adhesion kinase 1; test: Protac activity at CRBN/PTK2 in human Huh-7 cells assessed as induction of PTK2 degradation incubated for 18 hrs by protein capillary electrophoresis method relative to control; format: cell-based
[17] = target: T1, Protein cereblon/Focal adhesion kinase 1; test: Protac activity at CRBN/PTK2 in human HLE cells assessed as induction of PTK2 degradation incubated for 18 hrs by protein capillary electrophoresis method relative to control; format: cell-based
[18] = target: T1, Protein cereblon/Focal adhesion kinase 1; test: Protac activity at CRBN/PTK2 in human Hep3B2.1-7 cells assessed as induction of PTK2 degradation incubated for 18 hrs by protein capillary electrophoresis method relative to control; format: cell-based; settings: Hep3B
Focal adhesion kinase 1 = Focal adhesion kinase 1 (Homo sapiens, UniProt Q05397); test: Inhibition of PTK2 (unknown origin) at 1 uM relative to control
[19] = target: T2, von Hippel-Lindau disease tumor suppressor/Focal adhesion kinase 1 (Homo sapiens, UniProt Q05397+P40337); test: Protac activity at VHL/PTK2 in human A549 cells assessed as induction of PTK2 degradation at 1 to 100000 nM incubated for 18 hrs in presence of NEDD8 inhibitor […] by protein capillary electrophoresis method; format: cell-based; settings: dose 1-100000 nM
[20] = target: T2, von Hippel-Lindau disease tumor suppressor/Focal adhesion kinase 1; test: Protac activity at VHL/PTK2 in human HuH-1 cells assessed as induction of PTK2 degradation incubated for 18 hrs by protein capillary electrophoresis method; format: cell-based
Target sequence in this assay (Q05397 whole entry): as the sequence (Q05397 whole entry) above
Target sequence in this assay (P40337 whole entry): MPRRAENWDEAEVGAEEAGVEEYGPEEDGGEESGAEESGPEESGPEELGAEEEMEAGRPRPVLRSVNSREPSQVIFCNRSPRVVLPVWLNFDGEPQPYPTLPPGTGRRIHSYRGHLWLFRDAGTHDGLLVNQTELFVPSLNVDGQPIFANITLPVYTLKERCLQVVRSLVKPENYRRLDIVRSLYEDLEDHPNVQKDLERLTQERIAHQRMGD

[21] = target: T2, von Hippel-Lindau disease tumor suppressor/Focal adhesion kinase 1; test: Protac activity at VHL/PTK2 in human HLE cells assessed as induction of PTK2 degradation incubated for 18 hrs by protein capillary electrophoresis method; format: cell-based
Target sequence in this assay (Q05397 whole entry): as the sequence (Q05397 whole entry) above
Target sequence in this assay (P40337 whole entry): as the sequence (P40337 whole entry) above

[22] = target: T2, von Hippel-Lindau disease tumor suppressor/Focal adhesion kinase 1; test: Protac activity at VHL/PTK2 in human SNU-398 cells assessed as induction of PTK2 degradation incubated for 18 hrs by protein capillary electrophoresis method relative to control; format: cell-based
[23] = target: T2, von Hippel-Lindau disease tumor suppressor/Focal adhesion kinase 1; test: Protac activity at VHL/PTK2 in human HLF1 cells assessed as induction of PTK2 degradation incubated for 18 hrs by protein capillary electrophoresis method; format: cell-based
Target sequence in this assay (Q05397 whole entry): as the sequence (Q05397 whole entry) above
Target sequence in this assay (P40337 whole entry): as the sequence (P40337 whole entry) above

[24] = target: T2, von Hippel-Lindau disease tumor suppressor/Focal adhesion kinase 1; test: Protac activity at VHL/PTK2 in human HuCCT-1 cells assessed as induction of PTK2 degradation incubated for 18 hrs by protein capillary electrophoresis method; format: cell-based
Target sequence in this assay (Q05397 whole entry): as the sequence (Q05397 whole entry) above
Target sequence in this assay (P40337 whole entry): as the sequence (P40337 whole entry) above

[25] = target: T2, von Hippel-Lindau disease tumor suppressor/Focal adhesion kinase 1; test: Protac activity at VHL/PTK2 in human Hep3B2.1-7 cells assessed as induction of PTK2 degradation incubated for 18 hrs in presence of Cyclosporine by protein capillary electrophoresis method; format: cell-based; settings: hep3b
Target sequence in this assay (Q05397 whole entry): as the sequence (Q05397 whole entry) above
Target sequence in this assay (P40337 whole entry): as the sequence (P40337 whole entry) above

[26] = target: T2, von Hippel-Lindau disease tumor suppressor/Focal adhesion kinase 1; test: Protac activity at VHL/PTK2 in human HLE cells assessed as induction of PTK2 degradation incubated for 18 hrs by protein capillary electrophoresis method relative to control; format: cell-based
[27] = target: T2, von Hippel-Lindau disease tumor suppressor/Focal adhesion kinase 1; test: Protac activity at VHL/PTK2 in human HepG2 cells assessed as induction of PTK2 degradation incubated for 18 hrs by protein capillary electrophoresis method; format: cell-based
Target sequence in this assay (Q05397 whole entry): as the sequence (Q05397 whole entry) above
Target sequence in this assay (P40337 whole entry): as the sequence (P40337 whole entry) above

[28] = target: T2, von Hippel-Lindau disease tumor suppressor/Focal adhesion kinase 1; test: Protac activity at VHL/PTK2 in human Huh-7 cells assessed as induction of PTK2 degradation incubated for 18 hrs by protein capillary electrophoresis method relative to control; format: cell-based
[29] = target: T2, von Hippel-Lindau disease tumor suppressor/Focal adhesion kinase 1; test: Protac activity at VHL/PTK2 in human Huh-7 cells assessed as induction of PTK2 degradation incubated for 18 hrs by protein capillary electrophoresis method; format: cell-based
[30] = target: T2, von Hippel-Lindau disease tumor suppressor/Focal adhesion kinase 1; test: Protac activity at VHL/PTK2 in human A549 cells assessed as induction of PTK2 degradation incubated for 18 hrs by protein capillary electrophoresis method relative to control; format: cell-based
[31] = target: Tyrosine-protein kinase Fes/Fps (Homo sapiens) (UniProt P07332); test: Inhibition of FES (unknown origin) at 1 uM relative to control
[32] = target: T2, von Hippel-Lindau disease tumor suppressor/Focal adhesion kinase 1; test: Protac activity at VHL/PTK2 in human SNU-387 cells assessed as induction of PTK2 degradation incubated for 18 hrs by protein capillary electrophoresis method; format: cell-based
[33] = target: T2, von Hippel-Lindau disease tumor suppressor/Focal adhesion kinase 1; test: Protac activity at VHL/PTK2 in human HuH-1 cells assessed as induction of PTK2 degradation incubated for 18 hrs by protein capillary electrophoresis method relative to control; format: cell-based
[34] = target: T2, von Hippel-Lindau disease tumor suppressor/Focal adhesion kinase 1; test: Protac activity at VHL/PTK2 in human Hep3B2.1-7 cells assessed as induction of PTK2 degradation incubated for 18 hrs in presence of Cyclosporine by protein capillary electrophoresis method relative to control; format: cell-based; settings: Hep3B
[35] = target: T2, von Hippel-Lindau disease tumor suppressor/Focal adhesion kinase 1; test: Protac activity at VHL/PTK2 in human HepG2 cells assessed as induction of PTK2 degradation incubated for 18 hrs by protein capillary electrophoresis method relative to control; format: cell-based

Chain of Tyrosine-protein kinase Fes/Fps (Homo sapiens) (P07332 whole entry): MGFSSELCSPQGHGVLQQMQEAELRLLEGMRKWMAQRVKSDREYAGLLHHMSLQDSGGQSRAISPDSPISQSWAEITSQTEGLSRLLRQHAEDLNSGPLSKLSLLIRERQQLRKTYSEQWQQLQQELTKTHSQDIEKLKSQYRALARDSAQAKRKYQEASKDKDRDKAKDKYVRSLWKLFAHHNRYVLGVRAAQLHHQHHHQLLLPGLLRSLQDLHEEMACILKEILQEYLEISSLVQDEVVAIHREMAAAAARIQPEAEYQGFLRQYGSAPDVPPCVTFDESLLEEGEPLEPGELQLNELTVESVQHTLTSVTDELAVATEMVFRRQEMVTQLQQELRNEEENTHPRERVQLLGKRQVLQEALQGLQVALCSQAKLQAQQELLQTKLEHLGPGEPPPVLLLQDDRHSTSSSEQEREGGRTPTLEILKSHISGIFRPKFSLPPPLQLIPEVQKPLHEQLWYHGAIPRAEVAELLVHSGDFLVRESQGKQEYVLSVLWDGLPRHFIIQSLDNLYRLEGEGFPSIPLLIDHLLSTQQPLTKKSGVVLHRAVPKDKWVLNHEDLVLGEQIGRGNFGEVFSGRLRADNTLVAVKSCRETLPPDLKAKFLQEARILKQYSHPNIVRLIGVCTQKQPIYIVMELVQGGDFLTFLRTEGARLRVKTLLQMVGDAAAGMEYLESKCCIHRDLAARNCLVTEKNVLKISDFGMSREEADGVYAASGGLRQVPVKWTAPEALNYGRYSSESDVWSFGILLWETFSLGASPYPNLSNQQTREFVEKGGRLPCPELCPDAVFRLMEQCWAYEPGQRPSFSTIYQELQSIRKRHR

COc1cc(C(=O)NCCOCCOCCOCCC(=O)Nc2cccc3c2C(=O)N(C2CCC(=O)NC2=O)C3=O)ccc1Nc1ncc(C(F)(F)F)c(Oc2cccc3c2C(=O)CC3)n1 (stereo unspecified)
Emax [1]: 90% | pDC50 [2]: 9 | pDC50 [3]: 7.9 | pDC50 [4]: 7.6 | Emax [5]: 95% | pDC50 [6]: 7.9 | Emax [7]: 93% | pDC50 [8]: 7.5 | Emax [9]: 94% | Stabilty [10]: > 3 months | pDC50 [11]: 7.6 | pDC50 [12]: 6.6 | Emax [13]: 30% | pDC50 [14]: 7.5 | pDC50 [15]: 6.8 | Emax [16]: 93% | Emax [17]: 79% | Emax [18]: 96%

COc1cc(C(=O)NCCOCCOCCOCC(=O)N[C@H](C(=O)N2C[C@H](O)C[C@H]2C(=O)NCc2ccc(-c3scnc3C)cc2)C(C)(C)C)ccc1Nc1ncc(C(F)(F)F)c(Oc2cccc3c2C(=O)CC3)n1
inhibition (Focal adhesion kinase 1): > 90% | Activity [19]: inactive | pDC50 [20]: 7.1 | pDC50 [21]: 7.6 | Emax [22]: 99% | pDC50 [23]: 7.4 | pDC50 [24]: 6.9 | pDC50 [25]: 7.4 | Emax [26]: 85% | pDC50 [27]: 6.2 | Emax [28]: 79% | pDC50 [29]: 7 | Emax [30]: 80% | inhibition [31]: > 90% | pDC50 [32]: 7.5 | Emax [33]: 79% | Emax [34]: 88% | Emax [35]: 65%

— ChEMBL document CHEMBL4673225, “Highly Selective PTK2 Proteolysis Targeting Chimeras to Probe Focal Adhesion Kinase Scaffolding Functions” (J Med Chem, 2019)
